# Results as given in patent US7112680B2, “Heterocyclic hydrazones for use as anti-cancer agents” (Austria Wirtschaftsservice Gesellschaft MIT Beschrankter …, priority 2000, dated 2006).
# Where two headings read alike, the source gives them in different places.
# Tests used:
# [1] = system: Burkitt's lymphoma (CA 46, ATCC No. CRL 1648); experiment: Inhibition of tumor cell growth, MTT-assay, Burkitt's lymphoma; type: cell-based, human
# Protocol: (§1) The KB cell lines were grown in Dulbecco's modified Eagle's medium (4,5 g glucose/l). To the cultures of KB-C1 cells 1 μg of colchicine/ml, and to the hydroxyurea-resistant KB-HU cells 1 mM hydroxyurea was added every other week. […] 3,000 - 10,000 cells in 200 μl medium were seeded per well into 96-well plates. […] Approximately 10,000 cells per 100 μl were seeded in 96-well plates. […] The substances were dissolved in dimethylsulfoxide (DMSO). […] Subsequently, the samples were fixed, washed, and the absorption was determined by a microplate reader.
# [2] = system: HeLa (epitheloid cervix carcinoma); experiment: Inhibition of tumor cell growth, SRB-assay, HeLa; type: cell-based, human
# [3] = system: HT-29 (colon adenocarcinoma); experiment: Inhibition of tumor cell growth, SRB-assay, HT-29; type: cell-based, human
# Protocol: as §1
# [4] = system: KB-3-1 (human oral epidermoid carcinoma); experiment: Inhibition of tumor cell growth, SRB-assay, KB-3-1; type: cell-based
# Protocol: (§2) In order to obtain information about the growth-inhibiting action on tumor cells, the inhibition of the growth of the following human tumor cells was determined: Burkitt's lymphoma (CA 46, ATCC No. CRL 1648), CCRF-CEM (acute lymphoblastic leukemia, ATCC No. CCL 119), K562 (chronic myelogenous leukemia, ATTC No. CCL 243), HeLa (epitheloid cervix carcinoma, ATCC No. CCL 2), MEXF 276L (melanoma), HT-29 (colon adenocarcinoma, ATCC No. HTB 38), KB-3-1 (human oral epidermoid carcinoma, CTCC No. CCL 17), KB-HU hydroxyurea-resistant, multidrug-resistant KB-C1 cells (Akiyama et al, Cell. Mol Genet., 11:117–126, 1985). Burkitt's, CCRF-CEM, HeLa and MEXF 276L cells were grown in RPMI 1640, HT-29 cells in McCoy's 5A medium. The KB cell lines were grown in Dulbecco's modified Eagle's medium (4,5 g glucose/l). To the cultures of KB-C1 cells 1 μg of colchicine/ml, and to the hydroxyurea-resistant KB-HU cells 1 mM hydroxyurea was added every other week. The media were supplemented with 10% fetal calf serum (except Burkitt's lymphoma cells with 15%), 2 mM glutamine, 50 units/ml penicillin and 50 μg/ml streptomycin. Inhibition of growth of HeLa, HT-29, KB and MEXF 276L cells was detected by the SRB-assay (Skehan et al, J. Natl Cancer Inst., 82:1107–1112, 1990). 3,000 - 10,000 cells in 200 μl medium were seeded per well into 96-well plates. Dose-response curves for CCRF-CEM and Burkitt's lymphoma cells were effected by an MTT-assay (Mosman, J. Immunol Methods, 65:55–63, 1983) from Boehringer Mannheim, Mannheim, Germany. Approximately 10,000 cells per 100 μl were seeded in 96-well plates. After an initial incubation of four hours, various substance concentrations were added, and the cells were incubated at 37° C. in a water-saturated atmosphere of 95% air and 5% CO2 for 72 hours. The substances were dissolved in dimethylsulfoxide (DMSO). The concentration of DMSO was 0.5%, and this was not toxic to the cells. Subsequently, the samples were fixed, washed, and the absorption was determined by a microplate reader.
# [5] = system: KB-HU hydroxyurea-resistant cells; experiment: Inhibition of tumor cell growth, SRB-assay, KB-HU; type: cell-based, human
# Protocol: as §2
# [6] = system: multidrug-resistant KB-C1 cells; experiment: Inhibition of tumor cell growth, SRB-assay, KB-C1; type: cell-based, human
# Protocol: as §2
# [7] = system: human tumor grafts (cell lines of FIG. 1); experiment: Colony forming assay (two-layer soft agar); type: cell-based; conditions: for IC50 / IC90 / Mean IC70: mean values of all cell lines tested in FIG. 1, continuous exposure 3 to 6 days; for tumor type selectivity: colony forming assay, IC70 pattern, FIG. 1
# Protocol: An excellent correlation of drug response in patients and the colony forming assay has been found (Scholz et al, Eur. J. Cancer 25:901–905, 1990). Solid human tumors were grown as grafts in nude mice, removed from the latter, mechanically comminuted and subsequently incubated in an enzyme cocktail consisting of collagenase (1.2–1.8 U/ml), DNAse (375 U/ml) and hyaluronidase (29 U/ml) in RPMI 1640 medium at 37° C. for 30 minutes. The cell mixture was passed through sieves of 200 μm and 50 μm mesh size and washed thereafter twice with PBS (phosphate buffered saline). The percentage of live cells was determined using a Neubauer counting chamber and trypan blue staining.
# The colony forming assay was performed according to a two-layer agar technique introduced and modified by Hamburger and Salmon (Hamburger and Salmon, Science, 197:461–463, 1977). The bottom layer consisted of 0.2 ml of Iscoves's Modified Dulbecco's medium with 20% fetal calf serum and 0.75% agar. 8×10^3 to 1.6×10^4 cells were added to the same medium and 0.4% agar and plated in 24-multiwell plates onto the base layer. One day after the plating (with continuous exposure), the substances were added in 0.2 ml medium. Each plate included six controls containing the solvent only, and the treated groups contained 6 concentrations of the substances, each in triplicate. Cultures were incubated at 37° C. and 7% CO2 in a water-saturated atmosphere for 3 to 6 days, depending on the doubling time of the tumor cells. At the time of maximum colony formation with a size of […], counts were performed with an automatic image analysis system. 24 h prior to counting, live colonies were stained with a sterile aqueous solution of 2-(4-iodophenyl)-3-(4-nitrophenyl)-5-phenyltetrazolium chloride (1 mg/ml, 100 μl/well). The results of the tests are given in FIG. 1, and in the following Table 5, respectively. […] Columns pointing towards the right show a slighter than average activity.
# [8] = Table 1, 72 hours, read-out: IC50 Burkitts
# [9] = Table 1, 72 hours, read-out: IC50 HeLa (converted)
# [10] = Table 1, 72 hours, read-out: IC50 HT-29 (converted)
# [11] = Table 1, 72 hours, read-out: IC50 KB-3-1
# [12] = Table 1, 72 hours, read-out: IC50 KB-HU
# [13] = Table 1, 72 hours, read-out: IC50 KB-Cl
# [14] = Table 4, 72 hours, read-out: In vitro-activity against human tumor cell lines, Burkitts
# [15] = Table 4, 72 hours, read-out: In vitro-activity against human tumor cell lines, HeLa
# [16] = Table 4, 72 hours, read-out: In vitro-activity against human tumor cell lines, HT-29
# [17] = Table 4, 72 hours, read-out: In vitro-activity against human tumor cell lines, KB-3-1
# [18] = Table 4, 72 hours, read-out: In vitro-activity against human tumor cell lines, KB-HU
# [19] = Table 4, 72 hours, read-out: In vitro-activity against human tumor cell lines, KB-C1
Structure (SMILES),"IC50 [2, 9] [nM]","IC50 [3, 10] [nM]","IC50 [4, 11] [nM]","IC50 [6, 13] [nM]","IC50 [1, 14] [nM]","IC50 [2, 15] [nM]","IC50 [3, 16] [nM]","IC50 [4, 17] [nM]","IC50 [5, 18] [nM]","IC50 [6, 19] [nM]",other results
CC(=NNc1nc2ccccc2n1C)c1cccc(C)n1 [Id-10],,,,,110,380,800,490,2230,1800,
CC(=NNc1nc2ccccc2n1C)c1ncccc1N(C)C [Id-11],,,,,2,20,160,8,240,60,IC50 [7]: 137 nM; IC90 [7]: 2900 nM; Mean IC70 [7]: 0.397 µM
C(=NNc1nc2ccccc2o1)c1ccccn1 [Ia-3],25,1440,480,770,,,,,,,"IC50 [1, 8]: 5 nM; IC50 [5, 12]: 610 nM"
CC(=NNc1nc2ccccc2n1C)c1ncccc1Cl [Id-3],,,,,4,250,540,310,180,300,
CC(C)C(=NNc1nc2ccccc2[nH]1)c1ccccn1 [Ia-15],21,520,700,1980,,,,,,,"IC50 [5, 12]: 1 nM"
CC(=NNc1nc2ccccc2n1C)c1ncccc1-c1ccccc1 [Id-14],,,,,10,70,70,550,700,1420,
"COc1cccnc1C(C)=NNc1nc2ccccc2n1C [Id-1, 1-(3-Methoxy-2-pyridyl)-1-ethanone-1-(1-methyl-1H-benzo[d]imidazol-2-yl)-hydrazone]",,,,,,,,,,,"IC50 ([1]; Homo sapiens, CA46, Table 4, 72 hours, read-out: In vitro-activity against human tumor cell lines, Burkitts): 1 nM; IC50 ([2]; Homo sapiens, HeLa, Table 4, 72 hours, read-out: In vitro-activity against human tumor cell lines, HeLa): 50 nM; IC50 ([3]; Homo sapiens, HT-29, Table 4, 72 hours, read-out: In vitro-activity against human tumor cell lines, HT-29): 230 nM; IC50 ([4]; Homo sapiens, KB 3-1, Table 4, 72 hours, read-out: In vitro-activity against human tumor cell lines, KB-3-1): 20 nM; IC50 ([5]; Homo sapiens, Table 4, 72 hours, read-out: In vitro-activity against human tumor cell lines, KB-HU): 10 nM; IC50 ([6]; Homo sapiens, KBC-1, Table 4, 72 hours, read-out: In vitro-activity against human tumor cell lines, KB-C1): 870 nM"
CCC(=NNc1nc2ccccc2o1)c1ccccn1 [Ia-9],,,,,,,,,,,"tumor type selectivity [7]: selectivity for colon, breast, ovarian, and uterus tumors"
"CC(=NNc1nc2ccccc2[nH]1)c1ccccn1 [Ia-4, 1-(2-Pyridyl)-1-ethanon-1(1H-benzo[d]imidazol-2-yl)-hydrazone]",,,,,,,,,,,"IC50 ([1]; Homo sapiens, CA46, Table 1, 72 hours, read-out: IC50 Burkitts): 44 nM; IC50 ([2]; Homo sapiens, HeLa, Table 1, 72 hours, read-out: IC50 HeLa (converted)): 70 nM; IC50 ([3]; Homo sapiens, HT-29, Table 1, 72 hours, read-out: IC50 HT-29 (converted)): 490 nM; IC50 ([4]; Homo sapiens, KB 3-1, Table 1, 72 hours, read-out: IC50 KB-3-1): 510 nM; IC50 ([5]; Homo sapiens, Table 1, 72 hours, read-out: IC50 KB-HU): 900 nM; IC50 ([6]; Homo sapiens, KBC-1, Table 1, 72 hours, read-out: IC50 KB-Cl): 1970 nM"

# Further lines, with some results ahead:
"IC50 [2, 9] [nM]","IC50 [3, 10] [nM]","IC50 [4, 11] [nM]","IC50 [6, 13] [nM]","IC50 [1, 14] [nM]","IC50 [2, 15] [nM]","IC50 [3, 16] [nM]","IC50 [4, 17] [nM]","IC50 [5, 18] [nM]","IC50 [6, 19] [nM]",Structure (SMILES),other results
23,130,210,610,,,,,,,CC(=NNc1nc2ccccc2o1)c1ccccn1 [Ia-6],"IC50 [1, 8]: 9 nM; IC50 [5, 12]: 320 nM"
53,240,4010,740,,,,,,,CCC(=NNc1nc2ccccc2[nH]1)c1ccccn1 [Ia-7],
,,,,,50,120,50,40,160,COc1ccnc(C(C)=NNc2nc3ccccc3n2C)c1 [Id-2],"tumor type selectivity [7]: selectivity for colon, breast, ovarian, and uterus tumors; IC50 [7]: 80 nM; IC90 [7]: 2850 nM; Mean IC70 [7]: 0.261 µM"
